Assay results from PubChem BioAssay (NCI).
“And” between values parts separate entries of the source, which are not always exact repeats. Identical values can stand only once.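 Values below derive from 48-hour exposures of cells grown in 96-well plates, with endpoints linearly interpolated between the two concentrations bracketing the appropriate inhibition level. GI50 marks 50% less growth. TGI marks complete inhibition of growth.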 Where a SMILES comes first, the peptide text is derived from it. Bridges are numbered along the chain shown (N, C = ends). [ ]: non-standard residue; d: D form. ξ: configuration not given here. ξThr(3R) = C[C@@H](O)C(N)C(=O)O; S5 = C=CCCC[C@](C)(N)C(=O)O

Legend:
Assay in all cases: growth of human tumour cells (NCI), 48 h
[1] = tested on: U251 CNS
[2] = tested on: TK-10 renal
[3] = tested on: HL-60(TB) leukemia
[4] = tested on: ACHN renal
[5] = tested on: IGROV1 ovarian
[6] = tested on: MDA-MB-435
[7] = tested on: OVCAR-4 ovarian
[8] = tested on: OVCAR-3 ovarian
[9] = tested on: CCRF-CEM leukemia
[10] = tested on: BT-549 breast

## C=C1C(=O)O[C@H]2[C@H]1CC/C(Cn1cc(-c3cccc(Cl)c3)nn1)=C\CC[C@@]1(C)O[C@@H]21
[1]
  GI50: 1.61 µM
  TGI: 3.01 µM
[2]
  GI50: 0.992 µM
  TGI: 2.15 µM
[3]
  GI50: 0.332 µM
  TGI: 1.31 µM
[4]
  GI50: 0.184 µM
  TGI: 0.355 µM
[5]
  GI50: 0.73 µM
  TGI: 2.41 µM
[6]
  GI50: 0.591 µM
  TGI: 1.98 µM
[7]
  GI50: 1.09 µM
  TGI: 2.44 µM
[8]
  GI50: 0.475 µM
  TGI: 1.63 µM
[9]
  GI50: 0.2 µM
  TGI: 0.685 µM
[10]
  GI50: 0.778 µM
  TGI: 2.1 µM

## CC(C)(C)NC(=O)[C@H]1CC[C@H]2[C@@H]3CC[C@H]4NC(=O)C=C[C@]4(C)[C@H]3CC[C@]12C
[1]
  GI50: > 100 µM
  TGI: > 100 µM
[2]
  GI50: > 100 µM
  TGI: > 100 µM
[3]
  GI50: 41.6 µM and > 100 µM
  TGI: > 100 µM
[4]
  GI50: > 100 µM
  TGI: > 100 µM
[5]
  GI50: > 100 µM
  TGI: > 100 µM
[6]
  GI50: > 100 µM
  TGI: > 100 µM
[7]
  GI50: > 100 µM
  TGI: > 100 µM
[8]
  GI50: > 100 µM
  TGI: > 100 µM
[9]
  GI50: 84.2 µM and > 100 µM
  TGI: > 100 µM
[10]
  GI50: 81.9 µM and > 100 µM
  TGI: > 100 µM

## NC(=O)CC1(O)C=C(Br)C(=O)C(Br)=C1
[1]
  GI50: 10.6 µM
  TGI: 24.1 µM
[2]
  GI50: 1.65 µM
  TGI: 4.2 µM
[3]
  GI50: 1.85 µM
  TGI: 4.64 µM
[4]
  GI50: 3.44 µM
  TGI: 12.3 µM
[5]
  GI50: 6.57 µM
  TGI: 30 µM
[6]
  GI50: 2.04 µM
  TGI: 7.31 µM
[7]
  GI50: 4.58 µM
  TGI: 15.9 µM
[8]
  GI50: 2.22 µM
  TGI: 5.34 µM
[9]
  GI50: 0.194 µM
  TGI: 0.434 µM
[10]
  GI50: 1.91 µM
  TGI: 6.97 µM

## N#Cc1ccccc1C#C/C=C\C#CC#C/C=C\C#Cc1ccccc1C#N
[1]
  GI50: 12.4 µM
  TGI: 47.1 µM
[2]
  GI50: 23.9 µM
  TGI: 83 µM
[3]
  GI50: 4.12 µM
  TGI: 22.5 µM
[4]
  GI50: 7.39 µM
  TGI: 37.8 µM
[5]
  GI50: 15 µM
  TGI: 91.6 µM
[6]
  GI50: 8.49 µM
  TGI: 26.4 µM
[7]
  GI50: 19.1 µM
  TGI: > 100 µM
[8]
  GI50: 4.55 µM
  TGI: 21.4 µM
[9]
  GI50: 4.95 µM
  TGI: > 100 µM
[10]
  GI50: 20.9 µM
  TGI: > 100 µM

## COc1c(O)cc2c(c1O)C(=O)C1=C(CCCC1)C2=O
[1]
  TGI: > 100 µM
[2]
  TGI: 74.7 µM
[3]
  TGI: 31.9 µM
[4]
  TGI: 58.4 µM
[5]
  TGI: 43.8 µM
[6]
  TGI: > 100 µM
[7]
  TGI: 95.6 µM
[8]
  TGI: > 100 µM
[9]
  TGI: 10.9 µM
[10]
  TGI: > 100 µM

## O=C(CCl)Nc1cc(Cl)c(Cl)cc1Cl
[1]
  TGI: 3.94 µM
[2]
  TGI: 3.27 µM
[3]
  TGI: 7.74 µM
[4]
  TGI: 4.58 µM
[5]
  TGI: 3.3 µM
[6]
  TGI: 2.77 µM
[7]
  TGI: 4.06 µM
[8]
  TGI: 3.31 µM
[9]
  TGI: 5.99 µM
[10]
  TGI: 3.53 µM

## NC(Cc1c[nH]c2ccc(F)cc12)C(=O)O (centres undefined)
[1]
  GI50: 728 µM
  TGI: > 2500 µM
[2]
  GI50: > 2500 µM
  TGI: > 2500 µM
[3]
  GI50: 737 µM
  TGI: > 2500 µM
[4]
  GI50: 738 µM
  TGI: > 2500 µM
[6]
  GI50: 785 µM
  TGI: > 2500 µM
[7]
  GI50: 953 µM
  TGI: > 2500 µM
[8]
  GI50: 724 µM
  TGI: > 2500 µM
[9]
  GI50: 1090 µM
  TGI: > 2500 µM
[10]
  GI50: 580 µM
  TGI: 1620 µM

## COc1ccc(Cl)cc1Nc1nc(C(F)(F)F)ccc1C(=O)N/N=C/c1cccnc1
[1]
  GI50: 2.4 µM
  TGI: > 100 µM
[2]
  GI50: 5.9 µM
  TGI: > 100 µM
[3]
  GI50: 1.95 µM
  TGI: > 100 µM
[4]
  GI50: 4.04 µM
  TGI: > 100 µM
[5]
  GI50: 4.33 µM
  TGI: > 100 µM
[6]
  GI50: 5.63 µM
  TGI: > 100 µM
[7]
  GI50: 0.521 µM
  TGI: > 100 µM
[8]
  GI50: 0.665 µM
  TGI: 6.82 µM
[9]
  GI50: 0.624 µM
  TGI: > 100 µM
[10]
  GI50: 1.99 µM
  TGI: > 100 µM

## CCCCCC[C@@H](C)Nc1nc2ccccc2c2occc12
[1]
  GI50: 11.7 µM
  TGI: 23.9 µM
[2]
  GI50: 10 µM
  TGI: 23.6 µM
[3]
  GI50: 22.4 µM
  TGI: 62.9 µM
[4]
  GI50: 15.5 µM
  TGI: 28.8 µM
[5]
  GI50: 0.0871 µM
  TGI: 11.5 µM
[6]
  GI50: 15.5 µM
  TGI: 40.2 µM
[8]
  GI50: 13.5 µM
  TGI: 38.2 µM
[9]
  GI50: 12.2 µM
  TGI: 39.2 µM
[10]
  GI50: 3.05 µM
  TGI: 18.2 µM

## CC(=O)N[C@H](C(=O)N[C@@H](CCCNC(=N)N)C(=O)N[C@@H](CCCCN)C(=O)N[C@@H](CCCNC(=N)N)C(=O)NC(C(=O)N[C@@H](CC(C)C)C(=O)N[C@@H](CCCNC(=N)N)C(=O)N[C@@]1(C)CCC/C=C\CCC[C@@](C)(C(=O)N[C@@H](CCCNC(=N)N)C(=O)N[C@@H](CCC(=O)O)C(=O)N[C@@H](CC(C)C)C(=O)N[C@H](C(=O)N[C@@H](CCC(=O)O)C(N)=O)C(C)C)NC(=O)[C@H](CCC(N)=O)NC(=O)[C@H](CC(C)C)NC(=O)[C@H](CC(C)C)NC1=O)[C@@H](C)O)C(C)C (stereo partly drawn) (Ac-VRKR[ξThr(3R)]LR[S5]LLQ[S5]RELVE-NH2; staple (Z) 8-12)
[1]
  GI50: 2.99 µM
  TGI: 10.4 µM
[2]
  GI50: 1.33 µM
  TGI: 4.38 µM
[3]
  GI50: 7.23 µM
  TGI: 19.2 µM
[4]
  GI50: 6.97 µM
  TGI: 14.7 µM
[6]
  GI50: 1.94 µM
  TGI: 7.56 µM
[7]
  GI50: 9.5 µM
  TGI: 20 µM
[8]
  GI50: 8.16 µM
  TGI: 15.7 µM
[9]
  GI50: 11.2 µM
  TGI: 34.2 µM
[10]
  GI50: 3.45 µM
  TGI: 11.1 µM
